Experimental data from patent US6906205B2, “Spiro and dispiro 1,2,4-trioxolane antimalarials” (Medicines for Malaria Venture MMV, priority 2002, dated 2005).
≈ marks a conversion by molar mass, not a printed value.

Columns and labels:
[1] = system: P. falciparum K1 strain (Thailand resistant to chloroquine); assay: semiautomated microdilution assay, [3H]-hypoxanthine incorporation, K1 strain; assay type: cell-based, Plasmodium falciparum; details: K1 strain, 72 h incubation
Summary of the method: (§1)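 Intraerythrocytic stages from unsynchronised stock cultures are exposed to test compounds in a semiautomated microdilution format, and fifty percent inhibitory concentrations are then fitted by logit regression.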

[2] = system: P. falciparum NF54 strain (sensitive to standard antimalarials); assay: semiautomated microdilution assay, [3H]-hypoxanthine incorporation, NF54 strain; assay type: cell-based, Plasmodium falciparum; details: NF54 strain, 72 h incubation
Summary of the method: as §1

[3] = system: ANKA strain of P. berghei; assay: single dose STI in vivo screen in infected mice; parameters: species or system Plasmodium berghei; details: for Activity (%) po / Activity (%) sc / Activity (%) SSVpo / Activity (%) 3 mg/kg SSV po / Activity (%) 10 mg/kg SSV po: percent reduction in parasitemia day 3 post-infection; for Activity (%) po / Survival (days) po: single 10 mg/kg po in 3% ethanol and 7% Tween 80; for Activity (%) po / Activity (%) sc / Activity (%) SSVpo: mice; for Activity (%) sc / Survival (days) sc: single 10 mg/kg sc in 3% ethanol and 7% Tween 80; for Activity (%) SSVpo: single po dose in standard suspending vehicle (SSV); for Survival (days) po / Survival (days) sc / Survival (days) SSVpo: untreated control 5.6 ± 0.3; for Survival (days) SSVpo: single po dose in SSV; for Activity (%) 3 mg/kg SSV po / Survival (days) 3 mg/kg SSV po: single 3 mg/kg po in SSV; for Activity (%) 10 mg/kg SSV po / Survival (days) 10 mg/kg SSV po: single 10 mg/kg po in SSV
Summary of the method: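 Groups of 3-5 Moro SPF or NMRI mice infected with the ANKA strain of P. berghei received a single dose of trioxolane on day one post-infection. The compound was given in 3% ethanol and 7% Tween 80 or in SSV (0.5% w/v CMC, 0.5% v/v benzyl alcohol, 0.4% v/v Tween 80, 0.9% w/v sodium chloride in water). Antimalarial activity was scored as percent reduction in parasitemia on day three and as survival time versus untreated controls. Survival to day 30 counted as cure.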

[4] = system: Schistosoma mansoni adult schistosomes (49-day-old); assay: effect on adult schistosomes (49-day-old) in mice; assay type: in vivo; details: single 400 mg/kg per os
Protocol: Mice were infected with 100 Schistosoma mansoni cercariae […]. Each group was treated per os with OZ compounds at single doses of 200, 400, and 600 mg/kg. […] All groups were killed 4 weeks after treatment and the liver and intestine were removed and separated. The liver and intestine were compressed and alive male and female worms could be seen and counted.

| Compound | IC50 (ng/ml) K1 [1] | IC50 (ng/ml) NF54 [2] | Activity (%) po [3] | Activity (%) sc [3] | Activity (%) SSVpo [3] | Survival (days) po [3] | Survival (days) sc [3] | Survival (days) SSVpo [3] | % reduction of adult worms growth at day 49 after per os application of 400 mg/kg, TWR (%) [4] | adult worms at day 49, per os 400 mg/kg, DEAD WORM (%) [4] | Activity (%) 3 mg/kg SSV po [3] | Activity (%) 10 mg/kg SSV po [3] | Survival (days) 10 mg/kg SSV po [3] | Survival (days) 3 mg/kg SSV po [3] |
| --- | --- | --- | --- | --- | --- | --- | --- | --- | --- | --- | --- | --- | --- | --- |
| Clc1ccc(C2(c3ccc(Cl)cc3)OOC3(O2)C2CC4CC(C2)CC3C4)cc1 (centres unmarked) [OZ43] | 11 ng/mL (≈ 26.4 nM) | 7.5 ng/mL (≈ 18 nM) | 99.97% | 97% | 18% | 8.9 days | 7.3 days | 5.4 days | 1% | 0% | – | – | – | – |
| CC(=O)N1CCC2(CC1)OOC1(O2)C2CC3CC(C2)CC1C3 (centres unmarked) [OZ49] | 0.82 ng/mL (≈ 2.67 nM) | 0.93 ng/mL (≈ 3.03 nM) | 81% | 85% | – | 6.7 days | 7.3 days | – | 17% | 10% | – | – | – | – |
| O=S1(=O)CCC2(CC1)OOC1(O2)C2CC3CC(C2)CC1C3 (centres unmarked) [OZ50] | 1.1 ng/mL (≈ 3.5 nM) | 1.2 ng/mL (≈ 3.82 nM) | 77% | 97% | 57% | 7.0 days | 7.3 days | 5.7 days | 12% | 4% | – | – | – | – |
| c1ccc(C2CCC3(CC2)OOC2(O3)C3CCCC2CCC3)cc1 (centres unmarked) [OZ67] | >100/>100 ng/ml | >100/>100 ng/ml | 0/NA/0% | 0/NA/0% | – | 5.0/NA/5.0 days | 5.0/NA/5.0 days | – | 38% | 0% | – | – | – | – |
| O=[N+]([O-])c1cccc(C2(c3cccc([N+](=O)[O-])c3)OOC3(O2)C2CC4CC(C2)CC3C4)c1 (centres unmarked) [OZ105] | 5.4 ng/mL (≈ 12.3 nM) | – | 16% | 28% | 0% | 5.7 days | 6.3 days | 5.7 days | 8% | 0% | – | – | – | – |
| O=C(C[C@H]1CC[C@]2(CC1)OO[C@]1(O2)C2CC3CC(C2)CC1C3)NCc1ccccn1 [OZ295] | 0.44 ng/mL (≈ 1.07 nM) | 0.75 ng/mL (≈ 1.82 nM) | – | – | – | – | – | – | – | – | 35% | 47% | 7.0 days | – |
| O=C(C[C@H]1CC[C@]2(CC1)OO[C@]1(O2)C2CC3CC(C2)CC1C3)N1CCC(O)CC1 [OZ297] | 0.49 ng/mL (≈ 1.21 nM) | 0.76 ng/mL (≈ 1.87 nM) | – | – | – | – | – | – | – | – | 83% | – | 9.8 days | – |
| O=S(=O)(C[C@H]1CC[C@]2(CC1)OO[C@]1(O2)C2CC3CC(C2)CC1C3)c1ncccn1 [OZ299] | 6.8 ng/mL (≈ 16.2 nM) | 6.3 ng/mL (≈ 15 nM) | – | – | – | – | – | – | – | – | 0% | 36% | 6.6 days | – |
| O=C(O)CCC(=O)NC[C@H]1CC[C@]2(CC1)OO[C@]1(O2)C2CC3CC(C2)CC1C3 [OZ300] | 71 ng/mL (≈ 180 nM) | 97 ng/mL (≈ 247 nM) | – | – | – | – | – | – | – | – | 0% | 6% | 6.8 days | – |
| NC(=O)CNC(=O)C[C@H]1CC[C@]2(CC1)OO[C@]1(O2)C2CC3CC(C2)CC1C3 [OZ306] | 3.9 ng/mL (≈ 10.3 nM) | 3.6 ng/mL (≈ 9.51 nM) | – | – | – | – | – | – | – | – | 87% | 99.58% | 9.2 days | – |
| CS(=O)(=O)C[C@H]1CC[C@]2(CC1)OO[C@]1(O2)C2CC3CC(C2)CC1C3 [OZ307] | 0.62 ng/mL (≈ 1.74 nM) | 0.88 ng/mL (≈ 2.47 nM) | – | – | – | – | – | – | – | – | 74% | 98% | 9.4 days | – |
| O=C(C[C@H]1CC[C@]2(CC1)OO[C@]1(O2)C2CC3CC(C2)CC1C3)NCCN1CCOCC1 [OZ313] | 0.55 ng/mL (≈ 1.27 nM) | 0.76 ng/mL (≈ 1.75 nM) | – | – | – | – | – | – | – | – | 58% | 98.9% | – | – |
| NC1(C(=O)NC[C@H]2CC[C@]3(CC2)OO[C@]2(O3)C3CC4CC(C3)CC2C4)CCCC1 [OZ317] | 0.33 ng/mL (≈ 0.816 nM) | 0.36 ng/mL (≈ 0.89 nM) | – | – | – | – | – | – | – | – | 99.20% | 99.92% | 9.8 days | – |
| NC(=O)CCNC[C@H]1CC[C@]2(CC1)OO[C@]1(O2)C2CC3CC(C2)CC1C3 [OZ319] | 0.41 ng/mL (≈ 1.12 nM) | 0.91 ng/mL (≈ 2.5 nM) | – | – | – | – | – | – | – | – | 99.14% | 99.92% | 10.6 days | 10.8 days |
| NC1(C(=O)NC[C@H]2CC[C@]3(CC2)OO[C@]2(O3)C3CC4CC(C3)CC2C4)CCCCC1 [OZ333] | 0.24 ng/mL (≈ 0.573 nM) | 0.44 ng/mL (≈ 1.05 nM) | – | – | – | – | – | – | – | – | 96% | 99.86% | 9.2 days | – |
| NOC[C@H]1CC[C@]2(CC1)OO[C@]1(O2)C2CC3CC(C2)CC1C3 [OZ334] | 28 ng/mL (≈ 90.5 nM) | 20 ng/mL (≈ 64.6 nM) | – | – | – | – | – | – | – | – | 13% | 47% | 6.8 days | – |
| NNC(=O)C[C@H]1CC[C@]2(CC1)OO[C@]1(O2)C2CC3CC(C2)CC1C3 [OZ340] | 4.9 ng/mL (≈ 14.6 nM) | 2.9 ng/mL (≈ 8.62 nM) | – | – | – | – | – | – | – | – | 36% | 93% | 9.2 days | – |
| NC(=O)[C@@H]1CCCN1C(=O)C[C@H]1CC[C@]2(CC1)OO[C@]1(O2)C2CC3CC(C2)CC1C3 [OZ346] | 3.8 ng/mL (≈ 9.08 nM) | 4.7 ng/mL (≈ 11.2 nM) | – | – | – | – | – | – | – | – | 51% | 85% | 8.8 days | 7.6 days |
| C1C2CC3CC1CC(C2)[C@]31OO[C@@]2(CC[C@H](Cc3nnn[nH]3)CC2)O1 [OZ363] | 46 ng/mL (≈ 133 nM) | 55 ng/mL (≈ 159 nM) | – | – | – | – | – | – | – | – | 10% | 40% | 6.8 days | 6.0 days |
| O=C([C@H]1CC[C@]2(CC1)OO[C@]1(O2)C2CC3CC(C2)CC1C3)N1CCNCC1 [OZ368] | 0.63 ng/mL (≈ 1.67 nM) | 0.43 ng/mL (≈ 1.14 nM) | – | – | – | – | – | – | – | – | 99% | 99.94% | 9.0 days | 9.2 days |
